Measured values from patent US20110039721A1, “METHOD FOR PREDICTION ABOUT CARCINOGENICITY OF SUBSTANCE IN RODENT” (Chemicals Evaluation and Research Institute, priority 2007, published 2011).

Legend:
[1] = tested on: mRNA expressed from the genes (A) to (D) in rat liver; test: Behavior of genes (mRNA expression level, oligo-DNA microarray) in rat liver after 28-day oral administration; type: in vivo; details: mRNA vs vehicle control group
Method in brief: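 Male F344 SPF rats, 5 weeks old, four per group, dosed by oral gavage once daily for 28 days with test chemical or matched-volume solvent. Liver total RNA profiled on oligo-DNA microarray. Change ≥1.5-fold or ≤1/1.5 versus vehicle counted as significant if its direction matched that seen with other carcinogens.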

[2] = tested on: liver; details: in vivo; cited from earlier work
[3] = tested on: rodent; details: in vivo; cited from earlier work
[4] = gene group (A), Unigene No. Rn.167075
[5] = gene group (C), Unigene No. Rn.120914

In the case of `c1ccc2cc3c(ccc4ccccc43)cc2c1` [TS046, Benz[a]anthracene], the “Behavior of gene caused by administration of chemical substance, Gene No. 4846” value ([1]; gene group (A), Unigene No. Rn.144554) was “−”, the “Behavior of gene caused by administration of chemical substance, Gene No. 2026” value [1, 4] was “+” and the “Behavior of gene caused by administration of chemical substance, Gene No. 4218” value [1, 4] was “−”. The “Behavior of gene caused by administration of chemical substance, Gene No. 6182” value ([1]; gene group (A), Unigene No. Rn.5834) was “+”, the “Behavior of gene caused by administration of chemical substance, Gene No. 5600” value ([1]; gene group (A), Unigene No. Rn.9836) was “−” and the “Behavior of gene caused by administration of chemical substance, Gene No. 1494” value ([1]; gene group (B), Unigene No. Rn.1430) was “−”. For the same compound, the “Behavior of gene caused by administration of chemical substance, Gene No. 2045” value ([1]; gene group (B), Unigene No. Rn.19329) was “−”, the “Behavior of gene caused by administration of chemical substance, Gene No. 2203” value ([1]; gene group (B), Unigene No. Rn.21240) was “+” and the “Behavior of gene caused by administration of chemical substance, Gene No. 533” value ([1]; gene group (C), Unigene No. Rn.106184) was “−”. For the same compound, the “Behavior of gene caused by administration of chemical substance, Gene No. 725” value ([1]; gene group (C), Unigene No. Rn.108075) was “+”, the “Behavior of gene caused by administration of chemical substance, Gene No. 1163” value ([1]; gene group (C), Unigene No. Rn.11766) was “+” and the “Behavior of gene caused by administration of chemical substance, Gene No. 4973” value ([1]; gene group (C), Unigene No. Rn.118529) was “+”. The “Behavior of gene caused by administration of chemical substance, Gene No. 4095” value ([1]; gene group (C), Unigene No. Rn.119024) was “+”, the “Behavior of gene caused by administration of chemical substance, Gene No. 1334” value [1, 5] was “−” and the “Behavior of gene caused by administration of chemical substance, Gene No. 6620” value [1, 5] was “−”. The “Behavior of gene caused by administration of chemical substance, Gene No. 6303” value ([1]; gene group (C), Unigene No. Rn.123063) was “−”, the “Behavior of gene caused by administration of chemical substance, Gene No. 5878” value ([1]; gene group (C), Unigene No. Rn.143213) was “+” and the “Behavior of gene caused by administration of chemical substance, Gene No. 1131” value ([1]; gene group (C), Unigene No. Rn.144946) was “+”. For the same compound, the “Behavior of gene caused by administration of chemical substance, Gene No. 1562” value ([1]; gene group (C), Unigene No. Rn.14744) was “−”, the “Behavior of gene caused by administration of chemical substance, Gene No. 1741” value ([1]; gene group (C), Unigene No. Rn.1647) was “+” and the “Behavior of gene caused by administration of chemical substance, Gene No. 893” value ([1]; gene group (C), Unigene No. Rn.164817) was “+”. The “Behavior of gene caused by administration of chemical substance, Gene No. 6026” value ([1]; gene group (C), Unigene No. Rn.167685) was “−”, the “Behavior of gene caused by administration of chemical substance, Gene No. 154” value ([1]; gene group (C), Unigene No. Rn.185941) was “+” and the “Behavior of gene caused by administration of chemical substance, Gene No. 1993” value ([1]; gene group (C), Unigene No. Rn.18728) was “+”. The “Behavior of gene caused by administration of chemical substance, Gene No. 813” value ([1]; gene group (C), Unigene No. Rn.201760) was “+”, the “Behavior of gene caused by administration of chemical substance, Gene No. 2494” value ([1]; gene group (C), Unigene No. Rn.23969) was “−” and the “Behavior of gene caused by administration of chemical substance, Gene No. 2546” value ([1]; gene group (C), Unigene No. Rn.24561) was “+”. For the same compound, the “Behavior of gene caused by administration of chemical substance, Gene No. 3776” value ([1]; gene group (C), Unigene No. Rn.43232) was “+”, the “Behavior of gene caused by administration of chemical substance, Gene No. 3929” value ([1]; gene group (C), Unigene No. Rn.4620) was “−” and the “Behavior of gene caused by administration of chemical substance, Gene No. 1119” value ([1]; gene group (C), Unigene No. Rn.9757) was “+”. For the same compound, the “Behavior of gene caused by administration of chemical substance, Gene No. 6742” value ([1]; gene group (C), Unigene No. Rn.9779) was “+”, the “Behavior of gene caused by administration of chemical substance, Gene No. 5634” value ([1]; gene group (C), Unigene No. Rn.9862) was “+” and the “Behavior of gene caused by administration of chemical substance, Gene No. 5726” value ([1]; gene group (D), Unigene No. Rn.9939) was “+”. The Liver carcinogenicity [2] was “Cr−” and the Carcinogenicity [3] was “C+”.
